The results in this text go back to patent US20240368174A1, “Antiviral Heterocyclic Compounds” (Enanta Pharmaceuticals, Inc., priority 2023, published 2024).

pEC50: −log10 of the molar value.

The test system of the experiment is HMPV clinical isolate A2 strain TN 94-49. In words: HMPV antiviral assay, Method 1 (LLC-MK2 cells, ATP-Lite). The class given is cell-based. Conditions: human metapneumovirus, hMPV A2 TN/94-49, LLC-MK2 cells. The protocol:
In vitro HMPV antiviral activity was evaluated using the clinical isolate A2 strain TN 94-49 (obtained from Dr. John Williams, Vanderbilt University, Tennessee) and LLC-MK2 cells (ATCC #CCL-7), an immortalized kidney epithelial cell line from Macaca mulatta. Compounds were resuspended in dimethyl sulfoxide (DMSO) at 10 mM, serially diluted and added to a 384-well source plate. Subsequently, the compounds were diluted and transferred onto 384-well assay plates using the Echo-650 automated liquid handling system (Beckman Coulter, Indiana). The test compounds were assessed in duplicate at a top concentration of 2 μM followed by 2.5-fold serial dilutions to give a total of 10 concentration points. DMSO control wells were also included on the assay plates and were either infected or not, acting as positive and negative controls. A2 TN 94-49 virus infections were performed in-suspension with LLC-MK2 cells. The cells were washed twice with PBS and removed from the cell-culture flask with 0.25% trypsin-EDTA (Thermo Fisher Scientific, MA). The trypsin-EDTA was inactivated by resuspending in 2% fetal bovine serum (FBS) and OptiMEM (ThermoFisher Scientific, MA) containing 1% penicillin-streptomycin. Cells were pelleted by centrifuging for 5 minutes at 800 rpm, the supernatant was removed, and cells were re-suspended and washed in PBS plus 100 μg/mL CaCl2). This step was performed twice. Cells were then re-suspended in serum-free (SF)-OptiMEM containing 4 μg/mL TPCK-Trypsin (Sigma Aldrich, MO), 1% penicillin-streptomycin (ThermoFisher Scientific, MA) and 100 μg/mL CaCl2). Cells were counted and seeded at a density of 5,000 cells/well, 12.5 μL/well. Virus infections were done at a multiplicity of infection (MOI) of 0.005 with 12.5 μL added per well. Virus infections were performed in infection media which contained SF-OptiMEM, 100 μg/mL CaCl2) and 1% penicillin-streptomycin. HMPV viral stocks are suspended in infection media+5% glycerol, thus an equal volume of infection media+5% glycerol was added to uninfected wells to equalize the final % glycerol across all wells of the assay plate. The final concentration of TPCK-trypsin was 2 μg/mL. The assay plates were incubated at 37° C., 5% CO2 for 7 days. After 7 days incubation, 12.5 μL of ATP-Lite (PerkinElmer, MA) was added to each well and the raw luminescence values were determined using the Envision 2104 (Perkin Elmer, MA). The average of the raw luminescence values for the cells and virus only positive control wells was subtracted from all conditions tested and the percent cell health was determined by dividing these values by the average of the cells only negative control wells. EC50 values were then calculated by non-linear regression using a four-parameter curve logistic equation. The curve fit model employed was XLFit Dose Response One Site Model 200: y=(A+(B/(1+((x/C)^D)))), where A is the minimum y value, B is the maximum y value, C is the log EC50 value, and D is the slope factor.
What is called pEC50 is −log10 of the EC50, conventionally taken in molar units. Read a high pEC50 as a low EC50. As for `COc1cc(C(=O)NC[C@](O)(c2cc3c(c(-c4cc(Cl)c(F)cc4F)n2)OC[C@]3(C)C(N)=O)C2CC2)cn2cc(C(F)F)nc12` [Example 78], the negative logarithm of the EC50 (pEC50) was < 6.30.

For `COc1cc(C(=O)NC[C@@](O)(c2ccc(F)cc2)c2cc3c(c(-c4ccc(F)c(Cl)c4Cl)n2)OC[C@]3(C)C(N)=O)cc2cc(Cl)c(C)nc12` [Example 44], the pEC50 is > 6.30.

On to `COc1cc(C(=O)NC[C@@](O)(c2ccc(F)cc2)c2cc3c(c(-c4cc(Cl)c(F)cc4F)n2)OC[C@]3(C)C(N)=O)cc2cc(Cl)c(C)nc12` [Example 17], for which the pEC50 was > 6.30.

As to `COc1cc(C(=O)NC[C@](O)(c2cc3c(c(-c4cc(F)c(F)c(F)c4Cl)n2)OC[C@]3(C)C(N)=O)C(F)(F)F)cc2cn(C3CC3)nc12` [Example 59], the negative logarithm of the EC50 (pEC50) is > 6.30.

Regarding `[2H]C([2H])([2H])c1nc2c(OC)cc(C(=O)NC[C@@](O)(c3cccc(OC)c3)c3cc4c(c(-c5cc(Cl)c(F)cc5F)n3)OC[C@]4(C)C(N)=O)cc2s1` [Example 163], the pEC50 was > 6.30.

Consider `COc1cc(C(=O)NC[C@@](O)(c2ccsc2)c2cc3c(c(-c4cc(Cl)c(F)cc4F)n2)OC[C@]3(C)C(N)=O)cc2cn(C3(F)CC3)nc12` [Example 175], for which the negative-log EC50 (pEC50) was > 6.30.

Take `[2H]C([2H])([2H])c1nc2c(OC)cc(C(=O)NC[C@@](O)(c3ccccc3)c3cc4c(c(-c5cc(Cl)c(F)cc5F)n3)OC[C@]4(C)C(N)=O)cc2s1` [Example 155]: the pEC50 is > 6.30.

Regarding `[2H]C([2H])([2H])c1nc2c(OC)cc(C(=O)NC[C@@](O)(c3ccc(OC)cc3)c3cc4c(c(-c5cc(Cl)c(F)cc5F)n3)OC[C@]4(C)C(N)=O)cc2s1` [Example 168], the pEC50 is > 6.30.

Consider `COc1cc(C(=O)NC[C@@](O)(c2ccccc2)c2cc3c(c(-c4ccc5c(c4Cl)OC(F)(F)O5)n2)OC[C@]3(C)C(N)=O)cc2cn(C3CC3)nc12` [Example 251], for which the pEC50 is > 6.30.

`COc1cc(C(=O)NC[C@](O)(c2cc3c(c(-c4cc(Cl)c(F)cc4F)n2)OC[C@]3(C)C(N)=O)c2ccccc2F)cc2cc(C3CC3)nn12` [Example 137]: the pEC50 is > 6.30.

Take `COc1cc(C(=O)NC[C@](O)(c2cc3c(c(-c4cc(Cl)c(C)cc4F)n2)OC[C@]3(C)C(N)=O)C2CC2)cc2cn(C3CC3)nc12` [Example 51]: the pEC50 was < 6.30.

In the case of `COc1cc(C(=O)NC[C@@](O)(c2ccc(F)cc2)c2cc3c(c(-c4cc(Cl)c(F)cc4F)n2)OC[C@]3(C)C(N)=O)cc2cn(C(F)F)nc12` [Example 13], the negative-log EC50 (pEC50) was > 6.30.

Consider `COc1cc(C(=O)NC[C@@](O)(c2ccccc2)c2cc3c(c(-c4cc(Cl)c(F)cc4F)n2)OC[C@]3(C)C(N)=O)cc2cc(C(F)(F)F)cnc12` [Example 83], for which the pEC50 was > 6.30.

Consider `COc1cc(C(=O)NC[C@@](O)(c2ccc(F)cc2)c2cc3c(c(-c4ccc(F)c(Cl)c4Cl)n2)OC[C@]3(C)C(N)=O)cc2cc(C3CC3)nn12` [Example 45], for which the pEC50 was > 6.30.

In the case of `[2H]C([2H])([2H])c1cc2cc(C(=O)NC[C@](O)(c3cc4c(c(-c5cc(Cl)c(F)cc5F)n3)OC[C@]4(C)C(N)=O)C3CC3)cc(OC)c2nc1C([2H])([2H])[2H]` [Example 29], the negative-log EC50 (pEC50) was > 6.30.

On to `C[C@]1(C(N)=O)COc2c1cc([C@@](O)(CNC(=O)c1cc(OC3CC3)c3nn(C4CC4)cc3c1)c1ccccc1)nc2-c1ccc2c(c1Cl)OC(F)(F)O2` [Example 252], for which the pEC50 was > 6.30.

Regarding `COc1cc(C(=O)NC[C@@](O)(c2ccccc2)c2cc3c(c(-c4cc(Cl)c(F)cc4F)n2)OC[C@]3(C)C(N)=O)cc2cc(Cl)c(C)nc12` [Example 159], the pEC50 was > 6.30.

As to `Cc1nc2c(OC(F)F)cc(C(=O)NC[C@@](O)(c3cccc(F)c3)c3cc4c(c(-c5cc(Cl)c(F)cc5F)n3)OC[C@]4(C)C(N)=O)cc2cc1Br` [Example 135], the pEC50 was < 6.30.

Consider `C[C@]1(C(N)=O)COc2c1cc([C@@](O)(CNC(=O)c1cc(OC3CC3)c3nn(C4CC4)cc3c1)C1CC1)nc2-c1cc(Cl)c(F)cc1F` [Example 2], for which the pEC50 is > 6.30.

`COc1cc(C(=O)NC[C@](O)(c2cc3c(c(-c4cccc(S(F)(F)(F)(F)F)c4)n2)OC[C@]3(C)C(N)=O)C(F)(F)F)cc2cn(C3CC3)nc12` [Example 54]: the pEC50 was < 6.30.

For the compound `[2H]C([2H])([2H])c1nc2c(OC)cc(C(=O)NC[C@](O)(c3cc4c(c(-c5cc(F)c(F)cc5F)n3)OC[C@]4(C)C(N)=O)C3CC3)cc2cc1Br` [Example 7], the pEC50 is > 6.30.

Consider `COc1cc(C(=O)NC[C@](O)(c2cc3c(c(-c4cc(Cl)c(F)cc4F)n2)OC[C@]3(C)C(N)=O)c2ccccc2F)cc2cn(C(F)F)nc12` [Example 138], for which the pEC50 is > 6.30.

As for `CCNC(=O)[C@@]1(C)COc2c1cc([C@@](O)(CNC(=O)c1cc(OC)c3nn(C4CC4)cc3c1)c1ccccc1)nc2-c1cc(Cl)c(F)cc1F` [Example 142], the pEC50 is > 6.30.

As for `COc1cc(C(=O)NC[C@@](O)(c2ccccc2)c2cc3c(c(-c4cc(Cl)c(F)cc4F)n2)OC[C@]3(C)C(N)=O)cc2cn(C(F)F)nc12` [Example 156], the pEC50 is > 6.30.

Turning to `[2H]C([2H])([2H])c1cc2cc(C(=O)NC[C@](O)(c3cc4c(c(-c5ccc(F)c(Cl)c5)n3)OC[C@]4(C)C(N)=O)C(F)(F)F)cc(OC)c2nc1C` [Example 20], the pEC50 is < 6.30.

Consider `COc1cc(C(=O)NC[C@@](O)(c2ccc(F)cc2)c2cc3c(c(-c4ccc5c(c4Cl)OC(F)(F)O5)n2)OC[C@]3(C)C(N)=O)cc2cc(C(F)(F)F)cnc12` [Example 26], for which the negative logarithm of the EC50 (pEC50) is < 6.30.

For `Cc1nc2ccc(C(=O)NC[C@@](O)(c3ccccc3)c3cc4c(c(-c5cc(Cl)c(F)cc5F)n3)OC[C@]4(C)C(N)=O)cc2o1` [Example 86], the pEC50 is > 6.30.

Take `COc1cc(C(=O)NCC(O)(c2csc(Cl)c2)c2cc3c(c(-c4cc(Cl)c(F)cc4F)n2)OC[C@]3(C)C(N)=O)cc2cn(C3CC3)nc12` (some centres unmarked) [Example 471]: the pEC50 was > 6.30.

Take `COc1cc(C(=O)NC[C@@](O)(c2ccsc2)c2cc3c(c(-c4cc(F)c(F)cc4F)n2)OC[C@]3(C)C(N)=O)cc2cn(C(F)F)nc12` [Example 178]: the pEC50 is > 6.30.

As for `COc1cc(C(=O)NC[C@](O)(c2cc3c(c(-c4cc(Cl)c(F)cc4F)n2)OC[C@]3(C)C(N)=O)C2CC2)cc2cc(C(F)(F)F)cnc12` [Example 1], the pEC50 is < 6.30.

For the compound `COc1cc(C(=O)NC[C@@](O)(c2ccccc2)c2cc3c(c(-c4cc(Cl)c(F)cc4F)n2)OC[C@]3(C)C(=O)NC2CC2)cc2cn(C3CC3)nc12` [Example 143], the pEC50 is > 6.30.

For `COc1cc(C(=O)NC[C@@](O)(c2ccccc2)c2cc3c(c(-c4cc(C(F)(F)F)ccc4F)n2)OC[C@]3(C)C(N)=O)cc2cc(C3CC3)nn12` [Example 149], the pEC50 is > 6.30.

For `C[C@]1(C(N)=O)COc2c1cc([C@@](O)(CNC(=O)c1cc(OC(F)F)c3nn(C4CC4)cc3c1)C1CC1)nc2-c1ccc(F)c(Cl)c1F` [Example 40], the negative-log EC50 (pEC50) was > 6.30.

Turning to `COc1cc(C(=O)NC[C@](O)(c2cc3c(c(-c4ccc(F)c(CO)c4F)n2)OC[C@]3(C)C(N)=O)C2CC2)cc2cn(C3CC3)nc12` [Example 72], the negative-log EC50 (pEC50) is < 6.30.

As to `[2H]C([2H])([2H])c1cc2cc(C(=O)NC[C@](O)(c3cc4c(c(-c5cc(F)c(F)cc5F)n3)OC[C@]4(C)C(N)=O)C3CC3)cc(OC)c2nc1C([2H])([2H])[2H]` [Example 28], the pEC50 was > 6.30.
